Consider 3 compounds from patent US11970509B1, “Water soluble nano-sized imine Ru(III) complex based on 4-aminobenzene sodium sulphonate for biomedical applications” (KING FAISAL UNIVERSITY, priority 2023, dated 2024).

In brackets after ≈: the same amount, converted by molar mass.

One assay relates to Breast cancer cells line. Nature of the assay: Cytotoxic activity, Sulfo-Rhodamine-B-stain (SRB), breast cancer cell line. The conditions noted are these: Homo sapiens, 48 h.
The subject of a further assay is Aspergillus flavus. Nature of the assay: Antifungal activity, well diffusion method, Aspergillus flavus. The assay is classed as cell-based. How it is done:
To evaluate antimicrobial activity, the fungal strain (Aspergillus flavus), was used. These strains cultured in nutrient agar and Muller-Hinton medium. Fluconazole compounds were used as a standard drug for comparison.
Antifungal activities of the prepared water soluble nano-complex were studied against three fungal cultures using well diffusion method. The tested fungi were inoculated in Sabouraud dextrose broth medium (Hi-Media Mumbai) and incubated at 35° C. for 72 h and subsequently a suspension of about 1.60×10^4-6.00×10^4 c.f.u/ml was introduced agar plates and a sterile glass spreader was used for even distribution of the inoculum. The discs measuring 6 mm in diameter were prepared from Whatman No. 1 filter paper and sterilized by dry heat at 140° C. for 1 h. The sterile discs previously soaked in known concentration of the tested compounds were placed in Sabouraud dextrose Agar (SDA) plates. The plates were inverted and incubated at 35° C. for 7 days. The susceptibility was assessed on the basis of diameter of inhibition against albicans and non-albicans strain of fungi.
For orientation: Agar diffusion results depend on both activity and mobility in agar.

The test system of the next assay is Escherichia coli(-ve). Briefly: Antimicrobial activity, agar well diffusion method, E. coli. The assay is classed as cell-based. How it is done:
To evaluate antimicrobial activity, the bacterial strain Escherichia coli(-ve), was used. These strains cultured in nutrient agar and Muller-Hinton medium. Ofloxacin compounds were used as a standard drug for comparison. The susceptibilities of such growth rate of microorganisms were measured in vitro by agar well diffusion method. The tested nano complex was dissolved in dimethylsulfoxide at different concentrations (10 and 20 mg/ml). 1 cm^3 of a 24 h broth culture containing 10^6 CFU/cm^3 was placed in sterile Petri-dishes. Molten nutrient agar (15 cm^3) maintained at 45° C. was then poured into the Petri-dishes and allowed to solidify. Then holes of 6 mm diameter were formed in the agar using a sterile cork borer and these holes were completely filled with the test solutions. The plates were incubated for 24 h at 37° C. After the incubation period, the zone of inhibition of each well was determined by measuring the zones of growth inhibition (mm) against the test microorganisms with zone reader (Hi Antibiotic zone scale). […] The measurements were made in triplicate for each compound and their average values are reported.

Usually IC50 stands for the point on the concentration scale where inhibition reaches its midpoint. A low value points to higher potency. In turn, `COc1cccc2c1C(=O)c1c(O)c3c(c(O)c1C2=O)C[C@@](O)(C(=O)CO)C[C@@H]3O[C@H]1C[C@H](N)[C@H](O)[C@H](C)O1` [Doxorubicin, reference compound] showed a 50% inhibitory concentration (IC50) in the assay on Breast cancer cells line of 4 mg/L (≈ 7.36 µM).
Usually MIC stands for the smallest concentration in the dilution series that meets the test's criterion for growth inhibition. `OC(Cn1cncn1)(Cn1cncn1)c1ccc(F)cc1F` [Fluconazol, reference compound]: the minimal inhibitory concentration (MIC) in the assay with Aspergillus flavus turned out to be 1.75 mg/L (≈ 5.71 µM). In addition, the inhibition zone with Aspergillus flavus (well diffusion, 35° C. for 7 days) is recorded as 28 mm.
In the assay with Escherichia coli(-ve) (Escherichia coli), `CC1COc2c(N3CCN(C)CC3)c(F)cc3c(=O)c(C(=O)O)cn1c23` (centres unmarked) [Ofloxacin, reference compound] displayed a minimum inhibitory concentration (MIC) of 2.5 mg/L (≈ 6.92 µM). Also, in the assay on Escherichia coli(-ve) (agar well diffusion, 24 h at 37° C.), the inhibition zone came to 38 mm.
